Experimental data published in patent EP3494999A1, “PSMA LIGANDS FOR IMAGING AND ENDORADIOTHERAPY” (Technische Universität München, priority 2017, dated 2019).
Square brackets hold non-standard residues; d marks the D form. Peptide text beside a SMILES is read from it. * marks the point of attachment. X1 = O=C(O)CC[C@H](NC(=O)N[C@@H](CCCCNC(=O)CCCCCCC(=O)*)C(=O)O)C(=O)O; DOTAGA = O=C(O)CN1CCN(CC(=O)O)CCN(C(CCC(=O)*)C(=O)O)CCN(CC(=O)O)CC1; dPhe(4-NH2) = Nc1ccc(C[C@@H](N)C(=O)O)cc1; dTyr(3-I) = N[C@H](Cc1ccc(O)c(I)c1)C(=O)O; Phe(4-NH2) = Nc1ccc(C[C@H](N)C(=O)O)cc1; d2Nal = N[C@H](Cc1ccc2ccccc2c1)C(=O)O

Key:
PSMA = PSMA (Homo sapiens, UniProt Q04609); test: Determination of IC50: competitive binding against ([125I]I-BA)KuE on cells; parameters: endogenous in cells; LNCaP is named only for the xenografts; conditions: for IC50: natLu complexes, displacement of ([125I]I-BA)KuE, 60 min on ice, HBSS (1% BSA)
Description: The corresponding ^natLu^III-complexes were prepared from a 2 mM aqueous solution of the PSMA inhibitor with a 2.5 molar excess of LuCl3 (20 mM solution), heated to 95 °C for 30 min. After cooling, the ^natLu^III-chelate formation was confirmed using HPLC and MS. […] Calculated monoisotopic mass (C67H92N11O23 Lu) = 1,593.6 found: m/z = 1,595.0 [M+H]^+, 798.2 [M+2H]^2+. [^natLu]DOTAGA-(4-NH2)f-y-nal-k-KuE ([^natLu]PSMA-5): HPLC (10 to 60% B in 15 min.): tR = 9.0 min K' = 3.5. Calculated monoisotopic mass (C76H102N13O24 Lu) = 1,755.7 found: m/z = 1,756.4 [M+H]^+, 879.0 [M+2H]^2+. [^natLu]DOTAGA-(4-NH2)F-y-nal-k-KuE ([^natLu]PSMA-6): HPLC (10 to 60% B in 15 min.): tR = 9.1 min K' = 3.6. Calculated monoisotopic mass (C76H102N13O24 Lu) = 1,755.7 found: m/z = 1,756.6 [M+H]^+, 878.8 [M+2H]^2+. [^natLu]DOTAGA-y-nal-k(Suc-(HO-δ-orn-γ-EuE))-OH ([^natLu]PSMA-7): HPLC (10 to 60 % B in 15 min): tR = 7.8 min K' = 2.9. Calculated monoisotopic mass (C67H89N12O26 Lu): 1,652.5 found: m/z = 1,653.9 [M+H]^+. [^natLu]DOTAGA-(4-NH2)f-y-nal-k(Suc-(HO-δ-orn-γ-EuE))-OH ([^natLu]PSMA-8): HPLC (10 to 60 % B in 15 min): tR = 7.3 min K' = 2.7. Calculated monoisotopic mass (C67H99N14O27Lu): 1,814.6 found: m/z = 1,815.9 [M+H]^+, 908.3 [M+2H]^2+. [^natLu]DOTAGA-(4-NH2)F-y-nal-k(Suc-(HO-δ-orn-γ-EuE))-OH ([^natLu]PSMA-9): HPLC (10 to 60 % B in 15 min): tR = 7.2 min K' = 2.6. Calculated monoisotopic mass (C67H99N14O27Lu): 1,814.6 found: m/z = 1,815.6 [M+H]^+, 908.3 [M+2H]^2+. [^natLu]DOTAGA-y-nal-k(Glut-(l-f)-KuE) ([^natLu]PSMA-10): HPLC (25 to 55% B in 15 min): tR = 10.6 min K' = 4.9. Calculated monoisotopic mass (C73H94IN12O24Lu): 1,825.5 found: m/z = 1,826.5 [M+H]^+, 913.8 [M+2H]^2+. [^natLu]DOTAGA-(4-NH2)f-y-nal-k(Glut-(l-f)-KuE) ([^natLu]PSMA-11): HPLC (10 to 60% B in 20 min): tR = 9.7 min K' = 3.9. Calculated monoisotopic mass (C82H104IN14O25Lu): 1,986.6 found: m/z = 1,987.5 [M+H]^+, 994.3 [M+2H]^2+.
The reaction solution was incubated for 10 min at RT, loaded on a cartridge and rinsed with 10 mL water (C18 Sep Pak Plus cartridge, preconditioned with 10 mL MeOH and 10 mL water). After elution with 2.0 mL of a 1:1 mix (v/v) of EtOH/MeCN, the radioactive solution was evaporated to dryness under a gentle nitrogen stream and treated with 200 µL TFA for 30 min with subsequent evaporation of TFA.
After removal of the culture medium, the cells were treated once with 500 µL of HBSS (Hank's balanced salt solution, Biochrom, Berlin, Germany, with addition of 1% bovine serum albumin (BSA)) and left 15 min on ice for equilibration in 200 µL HBSS (1% BSA). […] All experiments were performed at least three times for each concentration. After 60 min incubation on ice, the experiment was terminated by removal of the medium and consecutive rinsing with 200 µL of HBSS. The media of both steps were combined in one fraction and represent the amount of free radioligand. Afterwards, the cells were lysed with 250 µL of 1.0 M NaOH and united with the 200 µL HBSS of the following wash step. Quantification of bound and free radioligand was accomplished in a γ-counter.

LNCaP xenograft = tested on: LNCaP xenograft; parameters: species or system SCID mice; conditions: mouse, in vivo
Description: (§1) All animal experiments were carried out in accordance with the general animal welfare regulations in Germany (Deutsches Tierschutzgesetz, approval #55.2-1-54-2532-71-13). For the tumor model, LNCaP cells (approx. 10^7 cells) were suspended 1:1 in serum-free DMEM-F12 medium and Matrigel (BD Biosciences, Germany) and inoculated onto the right shoulder of male, 6 to 8 weeks old CB-17 SCID mice (Charles River Laboratories, Sulzfeld, Germany). Animals were used after the tumor size reached 4 to 8 mm in diameter for experiments.

[1] = parameters: species or system SCID mice; conditions: mouse, in vivo
Description: as §1
Imaging experiments were conducted using a Siemens Inveon small animal PET and data analyzed by the associated Inveon Research Workplace software. Mice were anaesthetised with isoflurane and the ^68Ga-radiolabeled PSMA inhibitors (0.2 nmol, 7.0 to 12 MBq) were injected via tail vein. Dynamic imaging was carried out after on-bed injection for 90 min. The static blockade image was obtained, after 1 h p.i. with 15 min acquisition time. Blockade was done by coinjection of 8mg/kg of PMPA. All images were reconstructed using an OSEM3D algorithm without […] and attenuation correction.

Sequence of PSMA (Q04609 whole entry): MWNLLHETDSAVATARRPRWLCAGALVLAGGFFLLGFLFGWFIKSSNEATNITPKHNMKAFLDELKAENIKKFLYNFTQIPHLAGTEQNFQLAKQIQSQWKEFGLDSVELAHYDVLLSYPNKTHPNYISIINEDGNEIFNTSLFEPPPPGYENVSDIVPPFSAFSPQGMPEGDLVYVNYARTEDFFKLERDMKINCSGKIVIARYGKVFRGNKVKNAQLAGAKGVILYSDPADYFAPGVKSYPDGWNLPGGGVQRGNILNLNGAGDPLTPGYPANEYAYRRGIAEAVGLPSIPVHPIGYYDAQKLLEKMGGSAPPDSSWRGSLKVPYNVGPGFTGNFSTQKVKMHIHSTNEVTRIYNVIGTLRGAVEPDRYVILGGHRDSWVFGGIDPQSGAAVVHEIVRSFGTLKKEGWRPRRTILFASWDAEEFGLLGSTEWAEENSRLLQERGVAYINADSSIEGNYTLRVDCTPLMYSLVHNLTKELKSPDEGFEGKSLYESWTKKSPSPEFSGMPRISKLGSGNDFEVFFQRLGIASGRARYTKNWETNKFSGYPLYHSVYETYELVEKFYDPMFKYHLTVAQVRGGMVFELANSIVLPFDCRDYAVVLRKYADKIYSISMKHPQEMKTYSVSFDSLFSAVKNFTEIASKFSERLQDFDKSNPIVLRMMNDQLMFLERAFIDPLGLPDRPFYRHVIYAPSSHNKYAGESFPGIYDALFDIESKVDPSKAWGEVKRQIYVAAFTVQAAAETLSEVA

Which IC50 (PSMA) does the source give for `Nc1ccc(C[C@H](NC(=O)CCC(C(=O)O)N2CCN(CC(=O)O)CCN(CC(=O)O)CCN(CC(=O)O)CC2)C(=O)N[C@H](Cc2ccc(O)cc2)C(=O)N[C@H](Cc2ccc3ccccc3c2)C(=O)N[C@H](CCCCNC(=O)CCCCCCC(=O)NCCCC[C@H](NC(=O)N[C@@H](CCC(=O)O)C(=O)O)C(=O)O)C(=O)O)cc1` (stereo partly drawn) [[^nat/177Lu]PSMA-6, DOTAGA-(4-NH2)F-y-nal-k-KuE, metal not drawn] ({DOTAGA}-[Phe(4-NH2)][dY][d2Nal][dK](X1)-OH) here?
Its IC50 is 1.1 ± 0.1 nM.

What about the “affinity, fold higher than [Lu]PSMA DKFZ 617” value (PSMA; relative to [Lu]PSMA DKFZ 617) of the same molecule?
Its value is “more than 3 fold”.

What about the “affinity, fold higher than [Lu]PSMA I&T” value (PSMA; relative to [Lu]PSMA I&T) of the same molecule?
Its value is “around 7 fold”.

For `Nc1ccc(C[C@H](NC(=O)CCC(C(=O)O)N2CCN(CC(=O)O)CCN(CC(=O)O)CCN(CC(=O)O)CC2)C(=O)N[C@H](Cc2ccc(O)c(I)c2)C(=O)N[C@H](Cc2ccccc2)C(=O)N[C@H](CCCCNC(=O)CCCCCCC(=O)NCCCC[C@H](NC(=O)N[C@@H](CCC(=O)O)C(=O)O)C(=O)O)C(=O)O)cc1` (stereo partly drawn) [[^nat/177Lu]PSMA-3, DOTAGA-(4-NH2)F-(l-y)-f-k-KuE, metal not drawn] ({DOTAGA}-[Phe(4-NH2)][dTyr(3-I)][dF][dK](X1)-OH), which IC50 (PSMA) is on record?
Its IC50 is 2.8 ± 0.3 nM.

And the Increased tumor uptake (LNCaP xenograft)?
The Increased tumor uptake was “about 200%”.

For `Nc1ccc(C[C@@H](NC(=O)CCC(C(=O)O)N2CCN(CC(=O)O)CCN(CC(=O)O)CCN(CC(=O)O)CC2)C(=O)N[C@H](Cc2ccc(O)c(I)c2)C(=O)N[C@H](Cc2ccccc2)C(=O)N[C@H](CCCCNC(=O)CCCCCCC(=O)NCCCC[C@H](NC(=O)N[C@@H](CCC(=O)O)C(=O)O)C(=O)O)C(=O)O)cc1` (stereo partly drawn) [[^nat/177Lu]PSMA-2, DOTAGA-(4-NH2)f-(l-y)-f-k-KuE, metal not drawn] ({DOTAGA}-[dPhe(4-NH2)][dTyr(3-I)][dF][dK](X1)-OH), which IC50 (PSMA) is on record?
Its IC50 is 2.3 ± 0.6 nM.

And the kidney clearance [1]?
Its kidney clearance is “accelerated kidney clearance”.

For `O=C(O)CC[C@H](NC(=O)N[C@@H](CCCCNC(=O)CCCCCCC(=O)NCCCC[C@@H](NC(=O)[C@@H](Cc1ccc2ccccc2c1)NC(=O)[C@@H](Cc1ccc(O)cc1)NC(=O)CCC(C(=O)O)N1CCN(CC(=O)O)CCN(CC(=O)O)CCN(CC(=O)O)CC1)C(=O)O)C(=O)O)C(=O)O` (stereo partly drawn) [[^nat/177Lu]PSMA-4, DOTAGA-y-nal-k-KuE, metal not drawn, reference compound], which IC50 (PSMA) is on record?
The IC50 was 2.1 ± 0.8 nM.

For `O=C(O)CC[C@H](NC(=O)N[C@@H](CCCCNC(=O)[C@@H](Cc1ccc(I)cc1)NC(=O)CCCC(=O)NCCCC[C@@H](NC(=O)[C@@H](Cc1ccc2ccccc2c1)NC(=O)[C@@H](Cc1ccc(O)cc1)NC(=O)CCC(C(=O)O)N1CCN(CC(=O)O)CCN(CC(=O)O)CCN(CC(=O)O)CC1)C(=O)O)C(=O)O)C(=O)O` (stereo partly drawn) [[^nat/177Lu]PSMA-10, DOTAGA-y-nal-k(Glut-(l-f)-KuE), metal not drawn, reference compound], which IC50 (PSMA) is on record?
The IC50 was 6.1 ± 1.6 nM.
